In patent US9102648B1, “Bioavailable diacylhydrazine ligands for modulating the expression of exogenous genes via an ecdysone receptor complex” (Intrexon Corporation, priority 2003, dated 2015):
Like-named read-outs stand apart in the source and are kept apart here.

Legend:
[1] = target: GAL4 DBD (1-147)-CfEcR(DEF)/VP16AD-βRXREF-LmUSPEF (Choristoneura fumiferana, UniProt O77240); experiment: cell-based; settings: for Fold Induction, 27-63 Assay, 3.3 uM: 3.3 uM ligand; for Fold Induction, 27-63 Assay, 3.3 uM / Fold Induction, 27-63 Assay, 33 uM: RLU ligand treated / RLU DMSO treated cells; for Fold Induction, 27-63 Assay, 33 uM: 33 uM ligand; for 27-63 assay Rel Max FI: maximum fold induction at any concentration relative to that of GS-E ligand, CHO 27-63 cells
[2] = target: GAL4 DBD-CfEcR(DEF)/VP16AD-MmRXRE (Choristoneura fumiferana, UniProt O77240); experiment: 13B3 Assay (CHO stable cell line, luciferase reporter); settings: for Fold Induction, 13B3 Assay, 33 uM: 33 uM ligand; for 13B3 assay Rel Max FI: maximum fold induction at any concentration relative to that of GS-E ligand, CHO 13B3 cells
In short: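 CHO 13B3 clone stably expressing GAL4 DBD–CfEcR(DEF) and VP16AD–MmRXR(DE) with GAL4 RE–luciferase reporter; cells plated 24 h at 37 °C, then treated with ligands (DMSO stocks diluted 300-fold), 8 concentrations 33–0.01 μM.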

[3] = read-out: 27-63 assay EC50, CHO 27-63 stable cell line, luciferase reporter, average of two wells
[4] = RLU ligand treated / RLU DMSO treated cells, average of two wells

| Compound | Fold Induction, 27-63 Assay, 3.3 uM ([1]; average of two wells) | Fold Induction, 27-63 Assay, 33 uM ([1]; average of two wells) | 27-63 assay Rel Max FI [1] | EC50 [1, 3] | Fold Induction, 13B3 Assay, 33 uM [2, 4] | Fold Induction, 13B3 Assay, 3.3 uM ([2]; 3.3 uM ligand, RLU ligand treated / RLU DMSO treated cells, average of two wells) | 13B3 assay Rel Max FI [2] | EC50 ([2]; read-out: 13B3 EC50, CHO 13B3 stable cell line, luciferase reporter, 48 h, average of two wells) | EC50 [1] | fold induction at 3.3 µM ([1]; read-out: Fold Induction, 27-63 Assay, 3.3 uM) | fold induction at 33 µM ([1]; read-out: Fold Induction, 27-63 Assay, 33 uM) | EC50 [2] | fold induction at 3.3 µM ([2]; read-out: Fold Induction, 13B3 Assay, 3.3 uM) | fold induction at 33 µM ([2]; read-out: Fold Induction, 13B3 Assay, 33 uM) |
| --- | --- | --- | --- | --- | --- | --- | --- | --- | --- | --- | --- | --- | --- | --- |
| Cc1c(C(=O)NN(C(=O)c2ccc(F)cc2)C(C)(C)C)ccc2c1OCCO2 [RG-100425] | 1156 | 1099 | 0.671 | 370 nM | 747 | – | – | – | – | – | – | – | – | – |
| Cc1c(C(=O)NN(C(=O)c2cc(F)cc(F)c2)C(C)(C)C)ccc2c1CCCO2 [RG-115207] | 1332 | 1279 | 0.704 | 593 nM | 7959 | 7260 | 0.707 | 618 nM | – | – | – | – | – | – |
| COc1cc(C(=O)N(NC(=O)c2ccc3c(c2C)OCCO3)C(C)(C)C#N)cc(OC)c1C [RG-115092, N-(5-methyl-1,4-benzodioxan-6-carbonyl)-N′-(2-cyano-2-propyl)-N′-(3,5-dimethoxy-4-methylbenzoyl)hydrazine] | – | – | 1.092 | – | – | – | 1.176 | – | 213 nM | 2870 | 3110 | 184 nM | 2320 | 2410 |
